Test results taken from patent publication US20220195027A1, “ANTI-ANGIOGENESIS THERAPY FOR THE TREATMENT OF PREVIOUSLY TREATED BREAST CANCER” (Genentech, Inc., priority 2009, published 2022).
Where two headings read alike, the source gives them in different places.

Key:
[1] = tested on: metastatic breast cancer; conditions: MBC patients with prior anthracycline therapy; cited from earlier work
[2] = tested on: metastatic breast cancer; conditions: patients who previously received or were not candidates for anthracyclines; cited from earlier work
[3] = tested on: previously treated metastatic HER2-negative breast cancer; assay: RIBBON 2 Phase III study, efficacy (PFS, OS) of bevacizumab or placebo plus chemotherapy; assay type: in vivo, human; conditions: for Progression free survival, result in words: in combination with chemotherapy, compared to chemotherapy alone
Protocol: The doctors treating the women in the study chose the type of chemotherapy used in combination with Avastin and the chemotherapies were assessed together in the primary endpoint analysis. […] Ribbon 2 was an international, multicenter, randomized, double-blind, placebo-controlled clinical study that enrolled 684 patients with metastatic HER2-negative breast cancer who had previously received chemotherapy for their metastatic disease. See Study Conduct in Table 1 and Patient Characteristics in Table 2. The trial evaluated the addition of either Avastin® (bevacizumab) or placebo to an investigator's choice of chemotherapy. The following chemotherapy regimens were used in the study: taxanes: paclitaxel, protein-bound paclitaxel or docetaxel; gemcitabine; capecitabine; or vinorelbine. Bevacizumab (5 mg/kg Weekly Equivalent) 15 mg/kg IV q 3 weeks; or […] Plus Chemotherapy Taxane • Paclitaxel (e.g., Taxol®): 90 mg/m^2 IV every week for 3 weeks followed by 1 week of rest; or • Paclitaxel (e.g., Taxol®): 175 mg/m^2 IV every 3 weeks; or • Paclitaxel protein-bound particles (Abraxane®): 260 mg/m^2 IV every 3 weeks; or • Docetaxel (Taxotere®): 75-100 mg/m^2 IV every 3 weeks; or Gemcitabine (Gemzar®): 1250 mg/m^2 IV on Days 1 and 8 of each 3-week cycle; or Vinorelbine (Navelbine®): 30 mg/m^2 IV every week; or […] In the study, PFS was defined as the time from randomization to disease progression or death as assessed by the treating physicians in the study (investigator-assessed). Secondary endpoints included objective response rate, duration of response, one-year survival rate, overall survival, PFS assessment by chemotherapy type and safety. […] See Table 3 Primary Efficacy Analysis of PFS and FIG. 2 (Primary Endpoint of PFS) and FIG. 3 (Cohort-Specific Analyses of PFS). PFS results were generally consistent across chemotherapy cohorts with the exception of the small vinorelbine sub-group. Other sub-groups (age, triple negative, etc.) were generally consistent with the primary PFS results. The observed improvement in overall PFS was supported by the secondary efficacy endpoint of ORR. See Table 4 for Interim Efficacy Analysis of OS. […] See, e.g., Table 5, Safety Summary, Safety Population, Table 6 Selected AEs, Safety Population and Table 7 Safety Summary by Chemotherapy Cohort, Safety Population. Bevacizumab was beneficial to patients as a second-line treatment.

[4] = RIBBON 2 Phase III study, safety (adverse events), safety population; assay type: in vivo; conditions: in combination with chemotherapy
Description: Ribbon 2 was an international, multicenter, randomized, double-blind, placebo-controlled clinical study that enrolled 684 patients with metastatic HER2-negative breast cancer who had previously received chemotherapy for their metastatic disease. […] The trial evaluated the addition of either Avastin® (bevacizumab) or placebo to an investigator's choice of chemotherapy. The following chemotherapy regimens were used in the study: taxanes: paclitaxel, protein-bound paclitaxel or docetaxel; gemcitabine; capecitabine; or vinorelbine.

In the case of `CC(=O)O[C@@]12CO[C@@H]1C[C@H](O)[C@@]1(C)C(=O)[C@H](O)C3=C(C)[C@@H](OC(=O)[C@H](O)[C@@H](NC(=O)OC(C)(C)C)c4ccccc4)C[C@@](O)([C@@H](OC(=O)c4ccccc4)[C@H]21)C3(C)C` [docetaxel], the survival [1] is listed as 11.4 months, the “time to disease progression” value [1] is listed as 4.4 months and the survival [2] is listed as 11.5 months. The time to progression [2] was 4.2 months.
With “bevacizumab: recombinant humanized anti-VEGF monoclonal antibody with human IgG1 framework and CDRs from murine antibody A.4.6.1” the “PFS stratified analysis HR (95% CI)” value ([3]; Chemo/BV vs Chemo/PL, ITT population) was 0.775, the PFS median ([3]; ITT population, investigator-assessed) was 7.2 months and the “Progression free survival, result in words” value [3] was “increase in progression free survival”. The “Progression free survival, result in words” value ([3]; listed as Avastin) was “increased the time”, the “Safety signals, result in words” value [4] was “No new bevacizumab safety signals were observed” and the “Safety signals, result in words” value ([4]; listed as Avastin) was “no new Avastin safety signals were observed”.
